The text below walks through data of ChEMBL document CHEMBL4819047, “Discovery of a new class of multi-target heterocycle piperidine derivatives as potential antipsychotics with pro-cognitive effect” (Bioorg Med Chem Lett, 2021).

Molecules are shown by their SMILES.

Data set [1] addresses T1, 5-hydroxytryptamine receptor 2A (Homo sapiens, UniProt P28223). Briefly: Antagonist activity at 5-HT2A receptor (unknown origin). In kind it is functional.
Data set [2] deals with T2, D(2) dopamine receptor (Homo sapiens, UniProt P14416). Briefly: Antagonist activity at D2 receptor (unknown origin). In kind it is functional.
T2 sequence (P14416 whole entry): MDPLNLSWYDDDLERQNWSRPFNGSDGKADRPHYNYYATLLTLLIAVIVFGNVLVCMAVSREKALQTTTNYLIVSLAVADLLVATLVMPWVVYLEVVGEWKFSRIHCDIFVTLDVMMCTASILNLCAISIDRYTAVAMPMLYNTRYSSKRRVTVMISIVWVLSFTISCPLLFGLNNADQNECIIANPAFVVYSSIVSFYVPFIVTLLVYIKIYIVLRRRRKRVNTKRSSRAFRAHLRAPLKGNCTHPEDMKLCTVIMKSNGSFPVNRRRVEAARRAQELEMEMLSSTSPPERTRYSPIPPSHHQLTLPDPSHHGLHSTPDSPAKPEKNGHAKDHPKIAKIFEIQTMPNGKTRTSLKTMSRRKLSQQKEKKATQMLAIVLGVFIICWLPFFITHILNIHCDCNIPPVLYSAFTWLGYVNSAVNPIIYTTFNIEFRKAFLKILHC
Data set [3] has as its target Voltage-gated inwardly rectifying potassium channel KCNH2 (Homo sapiens, UniProt Q12809).
Description: Inhibition of human ERG by automated patch method relative to control
A further data set addresses Histamine H1 receptor (Homo sapiens, UniProt P35367). The data set is classed as ADME.
The target of data set [4] is 5-hydroxytryptamine receptor 6 (Homo sapiens, UniProt P50406).
Chain of 5-hydroxytryptamine receptor 6 (P50406 whole entry): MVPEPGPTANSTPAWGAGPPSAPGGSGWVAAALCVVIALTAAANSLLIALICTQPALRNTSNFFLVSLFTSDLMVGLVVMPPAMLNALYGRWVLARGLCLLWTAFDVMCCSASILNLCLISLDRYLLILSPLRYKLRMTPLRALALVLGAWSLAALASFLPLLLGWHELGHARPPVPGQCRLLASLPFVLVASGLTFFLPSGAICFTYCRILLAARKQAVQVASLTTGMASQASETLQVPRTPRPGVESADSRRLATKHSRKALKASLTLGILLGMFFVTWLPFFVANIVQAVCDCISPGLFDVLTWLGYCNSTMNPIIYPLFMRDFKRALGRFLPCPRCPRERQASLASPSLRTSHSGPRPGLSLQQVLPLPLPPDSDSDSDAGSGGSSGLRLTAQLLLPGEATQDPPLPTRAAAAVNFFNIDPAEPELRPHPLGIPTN
Data set [5] deals with T3, 5-hydroxytryptamine receptor 1A (Homo sapiens, UniProt P08908).
T3 sequence (P08908 whole entry): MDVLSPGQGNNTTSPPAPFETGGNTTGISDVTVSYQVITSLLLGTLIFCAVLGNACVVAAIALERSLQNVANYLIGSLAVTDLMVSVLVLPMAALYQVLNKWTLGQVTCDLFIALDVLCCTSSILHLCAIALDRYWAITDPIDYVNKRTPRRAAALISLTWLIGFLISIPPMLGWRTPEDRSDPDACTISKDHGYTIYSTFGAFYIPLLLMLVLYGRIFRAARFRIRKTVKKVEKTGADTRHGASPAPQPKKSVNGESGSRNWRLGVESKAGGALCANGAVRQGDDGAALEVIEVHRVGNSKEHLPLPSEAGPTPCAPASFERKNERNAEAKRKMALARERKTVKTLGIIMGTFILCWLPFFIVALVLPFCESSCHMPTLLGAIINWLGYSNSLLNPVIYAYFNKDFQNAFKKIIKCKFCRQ

Data set [6] deals with T2, D(2) dopamine receptor.
Description: Binding affinity to dopamine D2 receptor (unknown origin)
The target of data set [7] is T3, 5-hydroxytryptamine receptor 1A. Kind of data set: Antagonist activity at 5-HT1A receptor (unknown origin). In kind it is functional.
The target in data set [8] is T1, 5-hydroxytryptamine receptor 2A.
The target in data set [9] is T4, 5-hydroxytryptamine receptor 2C (Homo sapiens, UniProt P28335).
T4 sequence (P28335 whole entry): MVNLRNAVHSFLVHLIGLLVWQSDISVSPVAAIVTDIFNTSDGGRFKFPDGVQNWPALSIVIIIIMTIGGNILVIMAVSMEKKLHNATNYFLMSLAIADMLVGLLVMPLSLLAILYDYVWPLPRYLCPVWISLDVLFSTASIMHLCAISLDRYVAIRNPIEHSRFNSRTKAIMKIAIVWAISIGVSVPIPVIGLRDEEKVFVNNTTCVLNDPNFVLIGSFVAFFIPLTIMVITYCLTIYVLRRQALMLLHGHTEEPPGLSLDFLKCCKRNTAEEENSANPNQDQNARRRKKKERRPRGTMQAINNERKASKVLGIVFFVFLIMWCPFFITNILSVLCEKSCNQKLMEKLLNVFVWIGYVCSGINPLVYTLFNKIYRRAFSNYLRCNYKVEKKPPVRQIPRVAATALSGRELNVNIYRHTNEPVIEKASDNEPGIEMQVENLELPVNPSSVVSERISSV

The target of data set [10] is T5, Alpha-1A adrenergic receptor (Homo sapiens, UniProt P35348).
T5 sequence (P35348 whole entry): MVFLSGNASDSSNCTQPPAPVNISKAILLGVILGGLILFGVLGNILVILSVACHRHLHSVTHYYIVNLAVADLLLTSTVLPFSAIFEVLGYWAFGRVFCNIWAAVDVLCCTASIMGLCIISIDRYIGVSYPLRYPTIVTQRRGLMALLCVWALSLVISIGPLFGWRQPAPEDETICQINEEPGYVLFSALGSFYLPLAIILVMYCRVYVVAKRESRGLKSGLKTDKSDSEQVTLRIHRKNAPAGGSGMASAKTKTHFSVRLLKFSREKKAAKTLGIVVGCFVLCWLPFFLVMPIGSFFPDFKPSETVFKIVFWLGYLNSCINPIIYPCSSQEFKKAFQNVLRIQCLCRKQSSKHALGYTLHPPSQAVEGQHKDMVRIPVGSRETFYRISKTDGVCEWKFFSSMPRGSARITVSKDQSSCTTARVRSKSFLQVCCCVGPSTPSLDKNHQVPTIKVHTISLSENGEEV
Description: Binding affinity to alpha1 adrenoceptor (unknown origin)

The nature of data set [11]: Therapeutic index, ratio of ED50 for induction of catalepsy in po dosed mouse to ED50 for antipsychotic activity in po dosed mouse assessed as suppression of apomorphine-induced climbing. The data set is classed as toxicity, organism-based. Particulars: in vivo, read-out: Ratio ED50.
For data set [12] the following is noted: mouse, in vivo, po.
Description: Induction of catalepsy in po dosed mouse by Horizontal grid and elevated bar test
A short description of data set [13]: Therapeutic index, ratio of ED50 for induction of catalepsy in po dosed mouse to ED50 for antipsychotic activity in po dosed mouse assessed as reduction in MK-801-induced hyperlocomotor activity. The data set is classed as toxicity, organism-based. To be noted: in vivo, read-out: Ratio ED50.
The species named for data set [14] is Mus musculus. Briefly: animal or person. Particulars: po.
Description: Antipsychotic activity in po dosed mouse assessed as reduction in MK-801-induced hyperlocomotor activity
Data set [15] is filed under the species Mus musculus. Briefly: animal or person. Particulars: po. The source holds these as a separate data set.
Description: Antipsychotic activity in po dosed mouse assessed as suppression of apomorphine-induced climbing behaviour

T1 sequence (P28223 whole entry): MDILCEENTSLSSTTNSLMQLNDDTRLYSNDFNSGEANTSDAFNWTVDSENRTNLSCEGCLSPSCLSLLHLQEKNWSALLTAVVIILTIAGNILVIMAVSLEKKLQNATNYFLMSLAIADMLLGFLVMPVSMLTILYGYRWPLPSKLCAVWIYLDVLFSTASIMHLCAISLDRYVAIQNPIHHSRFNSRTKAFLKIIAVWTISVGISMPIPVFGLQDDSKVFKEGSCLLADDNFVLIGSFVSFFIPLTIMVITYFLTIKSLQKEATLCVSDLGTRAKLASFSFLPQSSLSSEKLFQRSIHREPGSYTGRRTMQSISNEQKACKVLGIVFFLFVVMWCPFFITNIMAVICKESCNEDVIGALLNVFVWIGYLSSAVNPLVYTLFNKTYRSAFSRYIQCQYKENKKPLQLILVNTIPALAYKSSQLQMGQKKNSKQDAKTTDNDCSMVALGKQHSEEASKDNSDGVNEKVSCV
Chain of Histamine H1 receptor (P35367 whole entry): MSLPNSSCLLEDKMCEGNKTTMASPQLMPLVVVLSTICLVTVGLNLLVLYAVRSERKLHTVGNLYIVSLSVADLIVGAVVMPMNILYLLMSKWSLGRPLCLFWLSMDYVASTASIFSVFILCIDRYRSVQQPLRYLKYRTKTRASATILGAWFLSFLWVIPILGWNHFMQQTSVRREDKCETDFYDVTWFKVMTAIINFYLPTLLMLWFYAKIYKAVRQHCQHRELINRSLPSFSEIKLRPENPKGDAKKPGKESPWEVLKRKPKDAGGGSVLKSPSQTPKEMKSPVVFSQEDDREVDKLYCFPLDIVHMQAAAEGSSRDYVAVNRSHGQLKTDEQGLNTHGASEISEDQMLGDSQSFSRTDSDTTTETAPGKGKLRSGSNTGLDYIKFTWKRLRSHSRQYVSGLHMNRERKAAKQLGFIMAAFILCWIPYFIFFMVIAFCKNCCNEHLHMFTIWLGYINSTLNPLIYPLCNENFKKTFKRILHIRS
Chain of Voltage-gated inwardly rectifying potassium channel KCNH2 (Q12809 whole entry): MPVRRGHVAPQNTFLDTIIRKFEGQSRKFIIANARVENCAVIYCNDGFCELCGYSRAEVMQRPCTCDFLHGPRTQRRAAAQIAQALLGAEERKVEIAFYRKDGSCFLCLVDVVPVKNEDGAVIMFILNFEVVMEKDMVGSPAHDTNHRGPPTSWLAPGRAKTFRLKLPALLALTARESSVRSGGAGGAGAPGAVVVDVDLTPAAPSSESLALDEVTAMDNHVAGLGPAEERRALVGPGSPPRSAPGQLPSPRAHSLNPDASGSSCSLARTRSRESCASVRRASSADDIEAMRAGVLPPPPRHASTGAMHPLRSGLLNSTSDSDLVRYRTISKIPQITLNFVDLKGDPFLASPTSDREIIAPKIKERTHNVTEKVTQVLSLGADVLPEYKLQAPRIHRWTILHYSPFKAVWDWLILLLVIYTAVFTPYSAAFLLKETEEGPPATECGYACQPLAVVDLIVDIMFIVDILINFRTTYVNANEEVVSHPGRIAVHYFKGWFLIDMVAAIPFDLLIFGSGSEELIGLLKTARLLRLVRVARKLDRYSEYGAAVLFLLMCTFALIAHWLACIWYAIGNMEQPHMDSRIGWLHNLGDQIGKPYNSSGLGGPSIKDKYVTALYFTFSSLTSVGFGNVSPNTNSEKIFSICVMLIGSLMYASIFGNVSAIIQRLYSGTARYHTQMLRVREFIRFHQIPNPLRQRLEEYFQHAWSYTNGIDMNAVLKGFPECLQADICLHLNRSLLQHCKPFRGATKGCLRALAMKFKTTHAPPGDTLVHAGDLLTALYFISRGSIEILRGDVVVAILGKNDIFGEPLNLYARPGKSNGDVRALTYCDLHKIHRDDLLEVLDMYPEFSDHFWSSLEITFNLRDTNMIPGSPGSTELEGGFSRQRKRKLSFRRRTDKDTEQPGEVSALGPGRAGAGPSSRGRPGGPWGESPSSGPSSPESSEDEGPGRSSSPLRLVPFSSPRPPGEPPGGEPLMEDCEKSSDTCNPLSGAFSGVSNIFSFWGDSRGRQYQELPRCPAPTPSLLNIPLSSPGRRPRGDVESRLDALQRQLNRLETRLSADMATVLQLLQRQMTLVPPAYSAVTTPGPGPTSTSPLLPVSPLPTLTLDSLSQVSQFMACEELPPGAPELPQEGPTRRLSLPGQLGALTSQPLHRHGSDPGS
Description for Histamine H1 receptor: Binding affinity to histamine H1 receptor (unknown origin)

For `Fc1ccc2c(C3CCN(CCCOc4ccc(CCN5CCOCC5)cc4)CC3)noc2c1`, the IC50 was 186 nM in data set [1], 11.3 nM at D(2) dopamine receptor [2], 2410 nM in data set [3] and 247 nM in data set [7]. Moreover, the Ki on Histamine H1 receptor was determined as 968 nM; in [4] it was 141 nM; in data set [5], 5.6 nM; at D(2) dopamine receptor [6], 10.5 nM; in data set [8], 8.4 nM; in data set [9], 610 nM. In data set [10], the Ki came out at 438 nM.
On to `O=C(CCCN1CCC(O)(c2ccc(Cl)cc2)CC1)c1ccc(F)cc1` [HALOPERIDOL], for which the selectivity ratio is 3.6 in data set [11] and 2.9 in [13]. Further, the ED50 in data set [12] was determined as 0.3 mg/kg; in the data set filed under Mus musculus [14], 0.1 mg/kg; in the data set filed under Mus musculus [15], 0.09 mg/kg.

What is called IC50 is the concentration that gives 50% inhibition. A higher IC50 goes with a need for much substance. What is called Ki is a dissociation constant, usually derived from enzyme kinetics or from competition with a known ligand. Low values mean a stronger hold on the target, high ones a looser hold on the target. Broadly, the ED50 is the midpoint of the dose-response relation. Read a low ED50 as greater potency.
